This note sets out measurements from ChEMBL document CHEMBL1201862, “PubChem BioAssay data set” (2004).

What all share (assay): DTP human tumour cell line panel, 48 h
In experiment [1] the test system is 786-0.
The test system of experiment [2] is A498.
Experiment [3] concerns A549.
Experiment [4] relates to BT-549.
Experiment [5] concerns HCC 2998.
Experiment [6] has as its system HCT-116.
Experiment [7] concerns HT-29.
The test system of experiment [8] is LOX IMVI.
Experiment [9] deals with M14.
Experiment [10] relates to MDA-N.
For experiment [11], the system named is MOLT-4.
Experiment [12] has as its system Malme-3M.
Experiment [13] concerns NCI-H23.
In experiment [14] the test system is NCI-H460.
In experiment [15] the test system is OVCAR-4.
The subject of experiment [16] is OVCAR-8.
Experiment [17] deals with SK-MEL-28.
Experiment [18] has as its system TK-10.
The test system of experiment [19] is U-251.
For experiment [20], the system named is NCI-H522.

The structures appear in SMILES notation.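 Each compound was tested at five concentrations against cells in 96-well plates for 48 hours. GI50 marks 50% less growth.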 The source made the active and inactive calls. No stated cut-off is given here; in the data, active = GI50 up to about 1.1 µM and inactive = higher.

What is called GI50 is the concentration giving 50% growth inhibition.

Regarding `CC(=O)NC1C(OCc2ccccc2)OC(CO)C(O)C1OC(C)C(=O)NC(C(=O)NC(CCC(=O)Nc1ccc2c(c1)CN1C(=O)c3ccccc3C1=N2)C(N)=O)C(C)C` (centres undefined), the GI50 in experiment [1], in experiment [2], in experiment [3], in [4], in [5] and in experiment [6] was > 100 µM (inactive) throughout. For the same compound, the GI50 in [7], in experiment [8], in [9], in [10], in experiment [11] and in [12] was > 100 µM (inactive) in each case. For the same compound, the GI50 in experiment [13], in [14], in experiment [15], in experiment [16], in experiment [17] and in experiment [18] was > 100 µM (inactive) in each case. Also, the GI50 in [19] is > 100 µM (inactive).

Take `C/C(=N\NC(=S)NC(C)(C)C)c1ccccn1`: the GI50 is < 0.0406 µM (active) in experiment [1]; 0.248 µM (active) in [2]; 0.248 µM (active) in [3]; 3.1 µM (inactive) in [4]; 0.235 µM (active) in experiment [5]; < 0.01 µM (active) in experiment [6]. Further, the GI50 in experiment [8] was < 0.01 µM (active); in [9], < 0.0314 µM (active); in experiment [10] it was 0.131 µM (active); in experiment [11], < 0.01 µM (active); in [12], 2.83 µM (inactive); in experiment [13], < 0.0172 µM (active). The GI50 in experiment [20] was 0.191 µM (active); in experiment [15], 4.1 µM (inactive); in [17] it was 3.66 µM (inactive); in [18] it was 0.358 µM (active); in experiment [19] it was 0.0252 µM (active).

As for `Cc1cc(=O)nc(S(=O)(=O)NC(=O)Nc2cccc(Cl)c2)[nH]1`, the GI50 in [1], in experiment [2], in experiment [3], in experiment [4], in experiment [5] and in [6] was > 100 µM (inactive) in each case. The GI50 in experiment [7] was > 100 µM (inactive); in experiment [8] it was > 100 µM (inactive); in experiment [9], > 100 µM (inactive); in experiment [10], > 100 µM (inactive); in [11], 32.7 µM (inactive); in [12], > 100 µM (inactive). Also, the GI50 in [13], in [14], in experiment [20], in experiment [16], in experiment [17] and in experiment [18] was > 100 µM (inactive) throughout. For the same compound, the GI50 in experiment [19] is 97.3 µM (inactive).

As to `CCOC(=O)c1c(SCc2cc(=O)[nH]c(=O)[nH]2)n(-c2ccccc2)c(=S)n(-c2ccccc2)c1=O`, the GI50 in [1], in [2], in [3], in experiment [4], in [5] and in [6] was > 100 µM (inactive) throughout. Also, the GI50 in experiment [7], in [9], in experiment [10], in [11], in experiment [12] and in [14] was > 100 µM (inactive) each time. Moreover, the GI50 in [16], in experiment [17], in experiment [18] and in experiment [19] was > 100 µM (inactive) each time.

For `Cc1cc2oc(=N)c(C#N)c(C)c2cc1C`, the GI50 was 96.4 µM (inactive) in experiment [1]; > 100 µM (inactive) in experiment [2]; 48.8 µM (inactive) in [3]; 39.4 µM (inactive) in experiment [4]; 52.5 µM (inactive) in experiment [5]; 53.1 µM (inactive) in [6]. Also, the GI50 was 63 µM (inactive) in experiment [7]; 90.2 µM (inactive) in experiment [8]; 67.6 µM (inactive) in experiment [9]; 96.8 µM (inactive) in [10]; 2.5 µM (inactive) in experiment [11]; 43 µM (inactive) in experiment [12]. For the same compound, the GI50 in experiment [13] was 31.3 µM (inactive); in experiment [14] it was 46.7 µM (inactive); in experiment [15], 56.2 µM (inactive); in [16], 72.3 µM (inactive); in [17], > 100 µM (inactive); in experiment [18], 67.3 µM (inactive). Further, the GI50 in experiment [19] is 65.6 µM (inactive).

`N#Cc1cc2cc3c4c(c2oc1=O)CCCN4CCC3`: the GI50 in experiment [1], in experiment [2], in experiment [3], in experiment [4], in experiment [5] and in experiment [6] was > 100 µM (inactive) in each case. The GI50 in experiment [7], in experiment [8], in [9], in [10], in experiment [11] and in experiment [13] was > 100 µM (inactive) throughout. The GI50 in experiment [14], in experiment [20], in experiment [15], in experiment [16], in experiment [17] and in experiment [18] was > 100 µM (inactive) in each case. In addition, the GI50 in experiment [19] is > 100 µM (inactive).

Take `CCOC(=O)NC(NCC(O)c1ccccc1)(C(F)(F)F)C(F)(F)F` (centres undefined): the GI50 in experiment [2], in [3], in experiment [4], in experiment [5], in [6] and in experiment [7] was > 100 µM (inactive) each time. Also, the GI50 in [8], in [9], in experiment [10], in experiment [11], in experiment [12] and in experiment [13] was > 100 µM (inactive) in each case. In addition, the GI50 in experiment [14], in experiment [20], in experiment [17], in experiment [18] and in [19] was > 100 µM (inactive) throughout.

In the case of `CCOC(=O)/C(=N\OC)C(O)C(F)(F)F` (centres undefined), the GI50 in experiment [1], in [2], in experiment [3], in [4], in [5] and in experiment [6] was > 100 µM (inactive) each time. In addition, the GI50 in experiment [7], in experiment [8], in [9], in experiment [10], in experiment [11] and in experiment [12] was > 100 µM (inactive) throughout. Further, the GI50 in experiment [13], in experiment [20], in experiment [16], in experiment [17], in experiment [18] and in [19] was > 100 µM (inactive) in each case.

For the compound `C[Si](C)(C)CNC(=O)OCc1ccccc1`, the GI50 in experiment [1] was > 100 µM (inactive); in experiment [2], > 100 µM (inactive); in [3], > 100 µM (inactive); in experiment [4], 98.9 µM (inactive); in experiment [5], > 100 µM (inactive); in experiment [6] it was > 100 µM (inactive). For the same compound, the GI50 was 48 µM (inactive) in [7]; > 100 µM (inactive) in experiment [8]; > 100 µM (inactive) in experiment [9]; > 100 µM (inactive) in experiment [10]; 76 µM (inactive) in experiment [13]; > 100 µM (inactive) in [14]. The GI50 in [20] was 83.2 µM (inactive); in experiment [15], 87.1 µM (inactive); in [16], > 100 µM (inactive); in experiment [17], > 100 µM (inactive); in experiment [18] it was > 100 µM (inactive); in experiment [19] it was > 100 µM (inactive).

As to `COC(=O)C1OC(O[C@H]2CC[C@]3(C)[C@H]4CC=C5[C@@H]6CC(C)(C)CC[C@]6(C(=O)OC)[C@H](O)C[C@@]5(C)[C@]4(C)CC[C@H]3C2(C)C)C(O)C(O)C1O` (some centres undefined), the GI50 is 8.49 µM (inactive) in experiment [1]; 12.6 µM (inactive) in [2]; 4.08 µM (inactive) in experiment [3]; 15.7 µM (inactive) in experiment [4]; 2.7 µM (inactive) in experiment [5]; 4.4 µM (inactive) in experiment [6]. Moreover, the GI50 was 3.21 µM (inactive) in experiment [7]; 3.18 µM (inactive) in experiment [8]; 5.22 µM (inactive) in experiment [9]; 12.2 µM (inactive) in experiment [10]; 3.61 µM (inactive) in experiment [11]; 12.8 µM (inactive) in [12]. The GI50 in [13] is 6.21 µM (inactive); in experiment [14], 6.49 µM (inactive); in experiment [20] it was 1.57 µM (inactive); in experiment [15], 5.68 µM (inactive); in experiment [16], 13.2 µM (inactive); in experiment [17], 11.1 µM (inactive). Besides, the GI50 in experiment [19] is 11.6 µM (inactive).

For the compound `COc1ccc2c(c1)OCC1=C2Oc2ccccc2C1`, the GI50 in experiment [1] was 38 µM (inactive); in experiment [2], > 100 µM (inactive); in experiment [3], 48.5 µM (inactive); in [4], 28 µM (inactive); in experiment [5], 24 µM (inactive); in experiment [6], 36.6 µM (inactive). The GI50 in experiment [7] was 26.7 µM (inactive); in [8] it was 21.4 µM (inactive); in [9], 38 µM (inactive); in experiment [10], 25 µM (inactive); in experiment [11] it was 20.3 µM (inactive); in experiment [12], > 100 µM (inactive). The GI50 is 53.2 µM (inactive) in experiment [13]; 22 µM (inactive) in experiment [20]; 31.6 µM (inactive) in experiment [15]; 55.6 µM (inactive) in [16]; 40.2 µM (inactive) in experiment [18]; 33.5 µM (inactive) in experiment [19].
